Source: ChEMBL document CHEMBL1287644, “The novel benzopyran class of selective cyclooxygenase-2 inhibitors. Part III: the three microdose candidates” (Bioorg Med Chem Lett, 2010)

Key:
Rattus norvegicus [1] = species on record: Rattus norvegicus; test: Antiarthritic activity in rat assessed as reduction in adjuvant-induced arthritic pain; assay type: functional
Rattus norvegicus [2] = species on record: Rattus norvegicus; test: Analgesic activity against carrageenan-induced thermal hyperalgesia in rat; assay type: functional
[3] = Half life in cynomolgus monkey; assay type: ADME, organism-based, Macaca fascicularis; details: in vivo
[4] = target: Prostaglandin G/H synthase 1 (Homo sapiens, UniProt P23219); test: Inhibition of human COX-1
[5] = Half life in rat; assay type: ADME, organism-based; details: in vivo
Rattus norvegicus [6] = test: Antiinflammatory activity in rat assessed as reduction of carrageenan-induced paw edema; assay type: functional
[7] = Half life in dog; assay type: ADME, organism-based, Canis lupus familiaris; details: in vivo
[8] = Half life in human at 10 ug, po; assay type: ADME, organism-based; details: in vivo
Rattus norvegicus [9] = test: Antiinflammatory activity in rat air pouch model assessed as inhibition of carrageenan-induced PGE2 production administered 1 hr before carrageenan challenge; assay type: functional; details: for ED50: Rattus norvegicus
Homo sapiens = species on record: Homo sapiens; test: Selectivity ratio of IC50 for human COX1 to IC50 for human COX2
Rattus norvegicus [10] = test: Antiinflammatory activity in rat air pouch model assessed as inhibition of carrageenan-induced PGE2 production administered 1 hr after carrageenan challenge

Sequence of Prostaglandin G/H synthase 1 (P23219 whole entry): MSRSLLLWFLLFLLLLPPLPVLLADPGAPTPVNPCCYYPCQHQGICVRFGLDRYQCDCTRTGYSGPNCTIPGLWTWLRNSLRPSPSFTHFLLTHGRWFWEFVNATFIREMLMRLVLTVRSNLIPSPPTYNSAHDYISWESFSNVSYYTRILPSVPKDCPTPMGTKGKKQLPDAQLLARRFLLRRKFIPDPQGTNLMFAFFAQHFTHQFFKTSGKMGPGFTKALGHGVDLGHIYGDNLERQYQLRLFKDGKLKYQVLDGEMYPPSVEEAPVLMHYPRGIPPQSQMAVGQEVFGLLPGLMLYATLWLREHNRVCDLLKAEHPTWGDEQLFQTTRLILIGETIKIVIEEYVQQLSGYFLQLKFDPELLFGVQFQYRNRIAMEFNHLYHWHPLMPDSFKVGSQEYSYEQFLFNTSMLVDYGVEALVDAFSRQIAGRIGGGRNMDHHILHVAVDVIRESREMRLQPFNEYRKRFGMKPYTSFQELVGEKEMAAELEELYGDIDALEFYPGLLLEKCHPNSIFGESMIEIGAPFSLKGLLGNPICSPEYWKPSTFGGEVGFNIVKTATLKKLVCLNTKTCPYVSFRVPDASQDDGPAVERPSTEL

SMILES	IC50 [4] [µM]	Ratio IC50 (Homo sapiens)	other results
Cc1cc2c(c(C)c1Cl)C=C(C(=O)O)[C@H](C(F)(F)F)O2	30.8		
Cc1ccc2c(c1)C=C(C(=O)O)C(C(F)(F)F)O2 (stereo not given)	224	896	inhibition (INH) (Rattus norvegicus [9]): 13%
O=C(O)C1=Cc2cc(OC(F)(F)F)ccc2OC1C(F)(F)F (stereo not given) [OCAROCOXIB]	17	773	
CCc1ccc2c(c1)C=C(C(=O)O)C(C(F)(F)F)O2 (stereo not given)	0.12	0.36	inhibition (INH) (Rattus norvegicus [10]): 90%
CCCc1cc(OC(F)(F)F)cc2c1O[C@@H](C(F)(F)F)C(C(=O)O)=C2	100		
CCc1cc(C)c2c(c1)C=C(C(=O)O)C(C(F)(F)F)O2 (stereo not given)	0.14	0.5	
C#Cc1ccc2c(c1)C=C(C(=O)O)C(C(F)(F)F)O2 (stereo not given)	94.2	1290	inhibition (INH) (Rattus norvegicus [9]): 60%
N#Cc1ccc2c(c1)C=C(C(=O)O)C(C(F)(F)F)O2 (stereo not given)	115	1040	
Cc1cc(OC(F)(F)F)cc2c1O[C@H](C(F)(F)F)C(C(=O)O)=C2			inhibition (INH) (Rattus norvegicus [9]): >68%
Cc1c(Cl)cc2c(c1C)O[C@H](C(F)(F)F)C(C(=O)O)=C2			inhibition (INH) (Rattus norvegicus [10]): 60%
O=Cc1ccc2c(c1)C=C(C(=O)O)C(C(F)(F)F)O2 (stereo not given)	500	685	
Cc1cc(C)c2c(c1)C=C(C(=O)O)C(C(F)(F)F)O2 (stereo not given)	169	704	
CCc1cc(OC(F)(F)F)cc2c1O[C@@H](C(F)(F)F)C(C(=O)O)=C2	100		
Cc1cc2c(c(C)c1Cl)C=C(C(=O)O)C(C(F)(F)F)O2 (stereo not given)	29.8	229	
Cc1cc(Cl)c(C)c2c1OC(C(F)(F)F)C(C(=O)O)=C2 (stereo not given)	2.58	12	
CCCc1cc(OC(F)(F)F)cc2c1O[C@H](C(F)(F)F)C(C(=O)O)=C2	71.7		inhibition (INH) (Rattus norvegicus [9]): >68%
CCCc1cc(OC(F)(F)F)cc2c1OC(C(F)(F)F)C(C(=O)O)=C2 (stereo not given)	7	163	
Cc1cc(C)c2c(c1)C=C(C(=O)O)[C@@H](C(F)(F)F)O2	100		ED50 (Rattus norvegicus [1]): 10 mg/kg; ED50 (Rattus norvegicus [2]): 20.7 mg/kg; half-life [3]: 28 h; half-life [5]: 8.7 h; ED50 (Rattus norvegicus [6]): 8.6 mg/kg; half-life [7]: 19 h; half-life [8]: 57 h; inhibition (INH) (Rattus norvegicus [9]): 80%; ED50 (Rattus norvegicus [9]): 2 mg/kg

Continued, in another order:

IC50 [4] [µM]	Ratio IC50 (Homo sapiens)	SMILES	other results
2.28		Cc1cc2c(c(C)c1Cl)C=C(C(=O)O)[C@@H](C(F)(F)F)O2	ED50 (Rattus norvegicus [1]): 3.2 mg/kg; ED50 (Rattus norvegicus [2]): 7.6 mg/kg; half-life [3]: 5.4 h; half-life [5]: 4.7 h; ED50 (Rattus norvegicus [6]): 8 mg/kg; half-life [7]: 23 h; half-life [8]: 11 h; ED50 (Rattus norvegicus [9]): 0.41 mg/kg
25.6	107	COc1cc(Cl)c2c(c1)C=C(C(=O)O)C(C(F)(F)F)O2 (stereo not given)	
0.14	5.4	C#Cc1cc(Cl)c2c(c1)C=C(C(=O)O)C(C(F)(F)F)O2 (stereo not given)	
	1	COc1ccc2c(c1)C=C(C(=O)O)C(C(F)(F)F)O2 (stereo not given)	
4.39		O=C(O)C1=Cc2cc(C(F)(F)F)ccc2OC1C(F)(F)F (stereo not given)	
1.08	5.7	Cc1cc(Cl)c2c(c1)C=C(C(=O)O)C(C(F)(F)F)O2 (stereo not given)	
19.9		CCc1cc(OC(F)(F)F)cc2c1O[C@H](C(F)(F)F)C(C(=O)O)=C2	ED50 (Rattus norvegicus [1]): 0.8 mg/kg; ED50 (Rattus norvegicus [2]): 5.6 mg/kg; half-life [3]: 12 h; half-life [5]: 2 h; ED50 (Rattus norvegicus [6]): 3.8 mg/kg; half-life [7]: 7.7 h; half-life [8]: 13 h; inhibition (INH) (Rattus norvegicus [9]): >72%; ED50 (Rattus norvegicus [9]): 1.87 mg/kg
0.47		Cc1cc(Cl)cc2c1OC(C(F)(F)F)C(C(=O)O)=C2 (stereo not given)	
0.5		CCc1cc(OC(F)(F)F)cc2c1OC(C(F)(F)F)C(C(=O)O)=C2 (stereo not given)	
	2.9	COc1cc(C)cc2c1OC(C(F)(F)F)C(C(=O)O)=C2 (stereo not given)	
	91	O=C(O)C1=Cc2cc(Cl)ccc2OC1C(F)(F)F (stereo not given)	
0.32	0.5	COc1cc(OC(F)(F)F)cc2c1OC(C(F)(F)F)C(C(=O)O)=C2 (stereo not given)	
